Measured values taken from paper PMC7829778, “Optimization of 1,4-Naphthoquinone Hit Compound: A Computational, Phenotypic, and In Vivo Screening against Trypanosoma cruzi” (Molecules, 2021).
Read-outs that look alike come from different tables or passages of the source.

Tests used:
[1] = Cytotoxicity in vitro assay (CellTiter Glo, ATP level); format: cell-based; conditions: African green monkey, Vero cells
Description: The cultures were maintained at 37 °C in humidified atmosphere of 5% CO2.
To evaluate the toxic effects of the 1,4-naphthoquinone derivatives on mammalian cells, Vero cells were seeded at a density of 1.5 × 10^4 cells/well in 96-well white culture plates. Twenty-four hours later, the cell cultures were incubated for 72 h at 37 °C with 1,4-naphthoquinone derivatives (series 1(a–i) and 2(a–j)) and Bz (500–1.9 µM) diluted in RPMI medium supplemented with 10% FBS. After incubation, the cell viability, measured by ATP level, was assessed by adding 20 µL/well of the CellTiter Glo (Promega Corporation, Madison, WI, EUA) solution. The luminescent signal was read on the FlexStation 3 reader (Molecular Devices, Sunnyvale, CA, USA). […] All treatments and controls were performed at low concentration (≤1%) of dimethyl sulfoxide (DMSO). At least three independent assays were performed in duplicate.

[2] = system: T. cruzi trypomastigotes Y strain; assay: Trypanocidal activity against trypomastigotes, Y strain (CellTiter Glo); format: cell-based; conditions: Trypanosoma cruzi, 24 h
Description: (§1) T. cruzi Dm28c-Luc clone, genetically modified to express firefly luciferase, and Y strain were used in the drug screening assay. Vero cells were infected with T. cruzi, Dm28c-Luc or Y strain, in a 10:1 parasites/host cell ratio and maintained at 37 °C in humidified atmosphere of 5% CO2. Trypomastigotes were harvested from the infected culture supernatant on the 4th day post-infection (dpi) followed by quantification of the number of parasites/mL in Neubauer chamber.
(§2) Screening of the compounds was performed against trypomastigotes and intracellular amastigote forms. Trypomastigotes (1 × 10^6 parasites/well), Dm28c-Luc clone and Y strain, were incubated for 24 h at 37 °C with the 1,4 naphthoquinone derivatives and Bz (0.41–100 μM) and their viability determined by the activity of the luciferase enzyme, after addition of luciferin substrate (300 μg/mL), or CellTiter Glo. The luminescent signal was detected on the FlexStation 3 reader.

[3] = system: intracellular amastigotes of T. cruzi (Dm28c-Luc clone); assay: Luminescent screening against intracellular amastigotes in infected Vero cells; format: cell-based, Trypanosoma cruzi; conditions: infected Vero cells treated for 72 h, mean ± SD of three experiments
Description: as §1
The effect of the compounds against intracellular amastigotes was screened in 72 h T. cruzi-infected Vero cells. Briefly, Vero cells seeded (1.5 × 10^4 cells/well) on 96-well white plate infected with trypomastigotes (Dm28c-Luc) at a 10:1 multiplicity of parasites/cell. After 24 h of infection, the cultures were washed with PBS and then, treated for 72 h at 37 °C with naphthoquinone derivatives and Bz (0.41–100 µM). After treatment, luciferin (300 µg/mL) was added to the culture and the viability of the parasites was assessed by reading the luminescent signal using the FlexStation 3 reader. Controls were also performed in no-toxic concentrations of DMSO (≤1%).

[4] = system: T. cruzi trypomastigotes Dm28c-Luc; assay: Trypanocidal activity against trypomastigotes, Dm28c-Luc clone (luciferase); format: cell-based, Trypanosoma cruzi; conditions: Trypanosoma cruzi, 24 h, mean ± SD of three experiments; for IC50: read-out: Trypanocidal Effect Trypomastigotes Dm28c-Luc IC50; for IC90: read-out: Trypanocidal Effect Trypomastigotes Dm28c-Luc IC90
Description: as §1, §2

[5] = Table 1, mean ± SD, read-out: Vero Cells Toxicity CC50
[6] = trypomastigotes, mean ± SD of three experiments, read-out: Trypanocidal Effect Trypomastigotes Y Strain IC50
[7] = trypomastigotes, mean ± SD of three experiments, read-out: Trypanocidal Effect Trypomastigotes Y Strain IC90
[8] = read-out: Trypanocidal Effect Trypomastigotes Y Strain IC50, trypomastigotes, 24 h, mean ± SD of three experiments
[9] = read-out: Trypanocidal Effect Trypomastigotes Y Strain IC90, trypomastigotes, 24 h, mean ± SD of three experiments

Row | SMILES | CC50 at 72 h [1, 5] | CC50 at 72 h ([1]; Table 2, read-out: CC50 Vero) | IC50 [2, 6] | IC90 [2, 7] | IC50 ([3]; Trypanosoma cruzi, Vero, 72 h) | IC90 ([3]; Trypanosoma cruzi) | IC50 [3] | IC50 [4] | IC90 [4] | IC50 [2, 8] | IC90 [2, 9] | melting point
1 | COc1ccc(C(Sc2ccc([N+](=O)[O-])cc2)C2=C(O)C(=O)c3ccccc3C2=O)cc1 (stereo not shown) [Compound 2f, 2-Hydroxy-3-((4-methoxyphenyl)((4-nitrophenyl)thio)methyl)naphthalene-1,4-dione] | 40.6 ± 2.9 µM | 40.6 ± 2.9 µM | 12.5 ± 1.6 µM | 19.9 ± 3.6 µM | ≤ 6.9 µM | 76.6 ± 4.9 µM | 5.7 ± 1.4 µM | 6.5 ± 3.1 µM | 11.5 ± 3.1 µM | – | – | –
2 | COc1ccc(C(Sc2ccc(Cl)cc2)C2=C(O)C(=O)c3ccccc3C2=O)c(OC)c1 (stereo not shown) [Compound 1h, 2-(((4-chlorophenyl)thio)(2,4-dimethoxyphenyl)methyl)-3-hydroxynaphthalene-1,4-dione] | 24.4 ± 2.6 µM | 24 to 34 µM | – | – | 12.1 ± 3.9 µM | 19.4 ± 3.6 µM | – | 15.4 ± 4.6 µM | – | 22.9 ± 7.1 µM | 31.9 ± 6.1 µM | –
3 | COc1ccc(SC(C2=C(O)C(=O)c3ccccc3C2=O)c2ccc(OC)cc2)cc1 (stereo not shown) [Compound 2i, 2-Hydroxy-3-((4-methoxyphenyl)((4-methoxyphenyl)thio)methyl)naphthalene-1,4-dione] | 44.8 ± 3.3 µM | 44.8 ± 3.3 µM | 10.6 ± 0.4 µM | 31.6 ± 5.4 µM | 15.8 ± 3.2 µM | 34.8 ± 5.3 µM | – | 24.1 ± 2.7 µM | 44.9 ± 6.7 µM | – | – | –
4 | COc1ccc(C(Sc2ccc(F)cc2)C2=C(O)C(=O)c3ccccc3C2=O)cc1 (stereo not shown) [Compound 2e, 2-(((4-fluorophenyl)thio)(4-methoxyphenyl)methyl)-3-hydroxynaphthalene-1,4-dione] | 47.7 ± 3.2 µM | 47.7 ± 3.2 µM | 20.3 ± 4.1 µM | 32.3 ± 5.1 µM | ≤ 6.9 µM | 19.7 ± 3.2 µM | 6.8 ± 1.5 µM | 24.4 ± 4.4 µM | 31.4 ± 4.4 µM | – | – | 132 to 134 °C
5 | COc1ccc(C(Sc2ccc(C)cc2)C2=C(O)C(=O)c3ccccc3C2=O)cc1 (stereo not shown) [Compound 2d, 2-Hydroxy-3-((4-methoxyphenyl)(p-tolylthio)methyl) naphthalene-1,4-dione] | 142 ± 17.6 µM | 142 ± 17.6 µM | 31.1 ± 1.8 µM | 49.7 ± 7.1 µM | 11.9 ± 1.7 µM | 28.8 ± 4.6 µM | – | 24.3 ± 3.4 µM | 82.2 ± 7.7 µM | – | – | –
6 | COc1ccc(C(Sc2ccccc2C)C2=C(O)C(=O)c3ccccc3C2=O)cc1 (stereo not shown) [Compound 2b, 2-Hydroxy-3-((4-methoxyphenyl)(o-tolylthio)methyl) naphthalene-1,4-dione] | 44.4 ± 3.4 µM | 44.4 ± 3.4 µM | 27.9 ± 4.1 µM | 37.9 ± 6.1 µM | ~12 µM | 27.4 ± 2.4 µM | 11.3 ± 1.1 µM | 25.9 ± 2.2 µM | 31.8 ± 0.9 µM | – | – | 54 to 55 °C
7 | O=C1C(O)=C(C(Sc2ccc(Cl)cc2)c2cccc(Cl)c2)C(=O)c2ccccc21 (stereo not shown) [Compound 1b, 2-((3-chlorophenyl)((4-chlorophenyl)thio)methyl)-3-hydroxynaphthalene-1,4-dione] | 42.1 ± 1.9 µM | 42.1 ± 1.9 µM | 3.6 ± 1.6 µM | 8.1 ± 1.3 µM | ≤ 6.9 µM | 12.7 ± 1.8 µM | 6.9 ± 1.5 µM | 9.8 ± 0.5 µM | 30.8 ± 2.9 µM | – | – | –
8 | O=C1C(O)=C(C(Sc2ccc(Cl)cc2Cl)c2ccccc2)C(=O)c2ccccc21 (stereo not shown) [Compound 1d, 2-(((2,4-dichlorophenyl)thio)(phenyl)methyl)-3-hydroxynaphthalene-1,4-dione] | 82.1 ± 5.1 µM | 82.1 ± 5.1 µM | 2.8 ± 0.6 µM | 5.8 ± 1.1 µM | 13.5 ± 2.1 µM | 31.1 ± 3.1 µM | – | 9.3 ± 1.1 µM | 23.3 ± 2.1 µM | – | – | 144 to 145 °C
9 | COc1ccc(C(Sc2cccc(C)c2)C2=C(O)C(=O)c3ccccc3C2=O)cc1 (stereo not shown) [Compound 2c, 2-Hydroxy-3-((4-methoxyphenyl)(m-tolylthio)methyl)naphthalene-1,4-dione] | 48.9 ± 4.7 µM | 48.9 ± 4.7 µM | 26.2 ± 4.8 µM | 32.8 ± 5.1 µM | ~12 µM | 30.9 ± 4.7 µM | 12.6 ± 2.4 µM | 52.3 ± 6.4 µM | 84.6 ± 11.4 µM | – | – | –
10 | O=C1C(O)=C(C(Sc2ccc(Cl)cc2)c2ccccc2Cl)C(=O)c2ccccc21 (stereo not shown) [Compound 1c, 2-((2-chlorophenyl)((4-chlorophenyl)thio)methyl)-3-hydroxynaphthalene-1,4-dione] | 44.1 ± 2.3 µM | 44.1 ± 2.3 µM | 4.3 ± 3.2 µM | 7.3 ± 2.2 µM | 9.3 ± 0.8 µM | 23.1 ± 3.3 µM | – | 8.6 ± 1.4 µM | 29.6 ± 5.4 µM | – | – | 183 to 184 °C
11 | COc1ccc(C(Sc2ccccc2)C2=C(O)C(=O)c3ccccc3C2=O)cc1 (stereo not shown) [Compound 2a, 2-Hydroxy-3-((4-methoxyphenyl)(phenylthio)methyl)naphthalene-1,4-dione] | 45.1 ± 1.9 µM | 45.1 ± 1.9 µM | 31.2 ± 4.3 µM | 38.9 ± 5.3 µM | ≤ 6.9 µM | 25.3 ± 1.9 µM | 6.7 ± 1.6 µM | 27.4 ± 2.9 µM | 32.1 ± 1.6 µM | – | – | –
12 | O=C1C(O)=C(C(Sc2ccc(Cl)cc2)c2ccccc2)C(=O)c2c(O)cccc21 (stereo not shown) [Compound 1f, 3-(((4-chlorophenyl)thio)(phenyl)methyl)-2,5-dihydroxynaphthalene-1,4-dione] | 41.1 ± 2.1 µM | 41.1 ± 2.1 µM | – | – | 10.1 ± 1.4 µM | 29.1 ± 2.1 µM | – | 9.8 ± 0.7 µM | 28.1 ± 1.7 µM | – | – | –
13 | O=C1C(O)=C(C(Sc2ccc(Cl)cc2)c2cn(-c3cc(Cl)cc(Cl)c3)nn2)C(=O)c2ccccc21 (stereo not shown) [Compound 1e, 2-(((4-chlorophenyl)thio)(1-(3,5-dichlorophenyl)-1H-1,2,3-triazol-4-yl)methyl)-3-hydroxynaphthalene-1,4-dione] | 34.1 ± 2.9 µM | 34.1 ± 7.5 µM | 4.7 ± 1.9 µM | 5.5 ± 0.9 µM | 9.1 ± 0.7 µM | 27.9 ± 3.9 µM | – | ~4.5 µM | 16.5 ± 2.8 µM | ~4.5 µM | – | 142 to 143 °C
14 | COc1ccc(C(Sc2ccc3ccccc3c2)C2=C(O)C(=O)c3ccccc3C2=O)cc1 (stereo not shown) [Compound 2h, 2-Hydroxy-3-((4-methoxyphenyl)(naphthalen-2-ylthio)methyl) naphthalene-1,4-dione] | 63.4 ± 7.1 µM | 63.4 ± 7.1 µM | 24.5 ± 3.6 µM | 34.5 ± 4.6 µM | 22.4 ± 2.2 µM | 31.5 ± 6.1 µM | – | 21.7 ± 4.7 µM | 39.7 ± 5.7 µM | – | – | 56 to 57 °C
15 | CCCSC(C1=C(O)C(=O)c2ccccc2C1=O)c1ccc(OC)cc1 (stereo not shown) [Compound 2g, 2-Hydroxy-3-((4-methoxyphenyl)(propylthio)methyl)naphthalene-1,4-dione] | 47.7 ± 5.2 µM | 47.7 ± 5.2 µM | 12.7 ± 3.9 µM | 23.7 ± 4.1 µM | 10.3 ± 2.4 µM | 37.7 ± 4.1 µM | – | 13.7 ± 4.1 µM | 28.7 ± 5.1 µM | – | – | –
16 | COc1ccc(C(Sc2ccc(Cl)cc2)C2=C(O)C(=O)c3ccccc3C2=O)c(OC)c1OC (stereo not shown) [Compound 1i, 2-(((4-chlorophenyl)thio)(2,3,4-trimethoxyphenyl)methyl)-3-hydroxynaphthalene-1,4-dione] | 34.2 ± 3.4 µM | 24 to 34 µM | – | – | 15.9 ± 3.1 µM | 27.2 ± 3.4 µM | – | 21.5 ± 2.9 µM | – | 30.1 ± 2.3 µM | 38.9 ± 4.3 µM | –
17 | COc1ccc(C(Sc2ccc(SC)cc2)C2=C(O)C(=O)c3ccccc3C2=O)cc1 (stereo not shown) [Compound 2j, 2-hydroxy-3-((4-methoxyphenyl)((4-(methylthio)phenyl)thio)methyl)naphthalene-1,4-dione] | 93.5 ± 6.6 µM | 93.5 ± 6.6 µM | 89.6 ± 5.4 µM | > 100 µM | 60.2 ± 9.8 µM | > 100 µM | – | 52.7 ± 12.6 µM | > 100 µM | – | – | –
